Assay results: patent US20050228020A1, “Beta secretase inhibitors” (priority 2000, published 2005)
Counter-ions that a name gives are not always drawn.

Target: T1, recombinant human β secretase (Homo sapiens, UniProt P56817)
T1 construct: made in house; host or cells: COS7 cells transfected with pBACE2; membrane fraction solubilised with octyl-β-glucoside, purified with anti-Flag antibody
Assay: Measurement of inhibitory activity on β secretase (fluorogenic peptide substrate cleavage)
Type: biochemical
Text: The PCR product was subjected to agarose gel electrophoresis, and about a 700-b DNA fragment was recovered. The fragment was cloned with a Zero Blunt TOPO PCR Cloning Kit (Invitrogen). The resultant plasmid was digested with restriction enzymes APaI (Takara Shuzo) and KpnI (Takara Shuzo) and then subjected to agarose gel electrophoresis to recover about a 250-b DNA fragment. […] These DNA fragments were mixed with an animal cell expression plasmid pcDNA3.1 (−) (Funakoshi) digested with API and KpnI, then ligated by use of Ligation High (Toyobo), and used to transform E. coli JM109 competent cells (Takara Shuzo) to give plasmid pBACE1. […] The PCR product was subjected to agarose gel electrophoresis, and about a 170-b DNA fragment was recovered. The fragment was cloned with a Zero Blunt TOPO PCR Cloning Kit (Invitrogen). The resultant plasmid was digested with restriction enzymes APaI (Takara Shuzo) and BbeI (Takara Shuzo) and then subjected to agarose gel electrophoresis, to recover about a 120-b DNA fragment. pBACE1 was digested with the same enzymes and subjected to agarose gel electrophoresis to recover about a 1.1-kb DNA fragment. Further, pBACE1 was digested with APaI and subjected to agarose gel electrophoresis to recover about a 5.7-kb DNA fragment. These 3 fragments were ligated by use of Ligation High (Toyobo), and used to transform E. coli JM109 competent cells (Takara Shuzo) to give plasmid pBACE2.
15 μg of Human β secretase expression plasmid pBACE2 and 45 μl of Fugene 6 (Roche Diagnostics) were allowed to stand in 1.5 ml D-MEM medium for 15 minutes at room temperature, and this mixture was added to COS7 cells previously grown in D-MEM medium (Nikken Seibutsu Igaku Kenkyusho) containing 10% fetal bovine serum (LifeTech Oriental) in a Tissue culture flask 150 ml (Becton, Dickinson & Co). […] The disrupted solution was centrifuged (500 g, 10 minutes), the supernatant was ultracentrifuged (100,000 g, 45 minutes), and the precipitates were lyzed (4° C., 2.5 hours) with 0.5 ml lyzing buffer (0.01 M Tris-HCl (pH 8), 0.05 M octyl-β-glucoside, 1 mM EDTA, 0.5 mM PMSF) and then ultracentrifuged (100,000 g, 45 minutes). The supernatant was purified with 100 μl anti-Flag antibody (Sigma).

[1] = substrate Nma-Ser-Glu-Val-Asn-Leu-Asp-Ala-Glu-Lys(Dnp)-Arg-Arg-NH2, 0.05 M acetate buffer pH 4.5, 37° C. for 22 hours, fluorescence 325/460

T1 sequence (P56817 with tags, fused parts or gaps): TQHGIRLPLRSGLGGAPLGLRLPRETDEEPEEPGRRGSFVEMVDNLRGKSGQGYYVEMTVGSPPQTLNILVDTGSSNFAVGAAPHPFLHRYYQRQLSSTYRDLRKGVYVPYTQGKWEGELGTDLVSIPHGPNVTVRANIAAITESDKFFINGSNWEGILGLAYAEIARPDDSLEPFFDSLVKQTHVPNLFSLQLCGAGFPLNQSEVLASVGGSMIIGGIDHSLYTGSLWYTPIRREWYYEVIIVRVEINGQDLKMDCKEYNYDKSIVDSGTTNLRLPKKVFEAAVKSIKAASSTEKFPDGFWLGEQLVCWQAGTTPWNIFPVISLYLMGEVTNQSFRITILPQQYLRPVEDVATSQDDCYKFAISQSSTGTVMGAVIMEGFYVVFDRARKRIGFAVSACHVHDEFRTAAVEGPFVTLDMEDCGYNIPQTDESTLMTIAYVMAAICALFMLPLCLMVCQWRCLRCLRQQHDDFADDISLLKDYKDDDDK

| SMILES | IC50 [1] [µM] | IC50 (pH 4.5) [µM] |
| --- | --- | --- |
| NCCC1CCc2cc(OCc3ccc(-c4ccccc4)cc3)ccc2C1 (stereo not drawn) [I] | 1.05 |  |
| c1ccc(-c2ccc(COc3ccc4c(c3)CCC(CCN3CCCC3)C4)cc2)cc1 (stereo not drawn) [E] | 1.12 |  |
| CN(C)CC[C@@H]1CCc2cc(OCc3ccc(-c4ccccc4)cc3)ccc2C1 [Compound A, (R)-(+)-6-(4-Biphenylyl)methoxy-2-[2-(N,N-dimethylamino)ethyl]tetralin hydrochloride·1H2O] | 2.93 |  |
| C[N+](C)([O-])CCC1CCc2cc(OCc3ccc(-c4ccccc4)cc3)ccc2C1 (stereo not drawn) [H] | 0.616 |  |
| CCN(C)CCC1CCc2cc(OCc3ccc(-c4ccccc4)cc3)ccc2C1 (stereo not drawn) [D] | 0.945 |  |
| CNCCC1CCc2cc(OCc3ccc(-c4ccccc4)cc3)ccc2C1 (stereo not drawn) [Compound C] | 1.29 |  |
| c1ccc(-c2ccc(COc3ccc4c(c3)CCC(CCN3CCCCC3)C4)cc2)cc1 (stereo not drawn) [F] |  | 0.349 |
| Cc1ccc(-c2ccc(COc3ccc4c(c3)CC[C@@H](CCN(C)C)C4)cc2)cc1 [J] | 0.857 |  |
| c1ccc(-c2ccc(COc3ccc4c(c3)CCC(CCn3ccnc3)C4)cc2)cc1 (stereo not drawn) [G] | 0.856 |  |
